Reference: patent US9120785B2, “Pyridyl aminopyridines as Syk inhibitors” (Merck Sharp & Dohme Corp., priority 2011, dated 2015)
Like-named read-outs stand apart in the source and are kept apart here.

How the values were obtained:
[1] = molecular target: recombinant human GST-Syk (Homo sapiens (Human), UniProt P43405); assay: Homogeneous Time-Resolved Fluorescence (HTRF) assay for the recombinant human Syk enzyme; format: biochemical; details: recombinant human GST-Syk 5 pM, ATP 25 μM
In short: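 GST-hSyk (5 pM final) preincubated 10 min at room temperature with inhibitor (0.1% DMSO) in 15 mM Tris-HCl pH 7.5, 0.01% Tween 20, 2 mM DTT. Reaction with 250 nM biotinylated peptide, 5 mM Mg, 25 μM ATP for 45 min, room temperature. Quenched with EDTA; Eu-anti-phosphotyrosine/SA-APC HTRF read after 30 min.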

[2] = dosed intranasally, phase I/II study, allergic rhinitis; cited from earlier work
[3] = phase II clinical trial, allergic rhinitis; cited from earlier work
[4] = class symbols, read-out: rhSyk activity (IC50)
[5] = 10-dose titration, read-out: rhSyk (nM) IC50

Compound	IC50 [1, 4]	other results
CC1(C)C[C@@H](C(C)(O)c2ncc(-c3cccc(Nc4cc(C(F)(F)F)ccn4)n3)s2)CC[C@@H]1C(=O)O (stereo partly drawn) [Example 14-44, (1S,4S)-4-{1-hydroxy-1-[5-(6-{[4-(trifluoromethyl)pyridin-2-yl]amino}pyridin-2-yl)-1,3-thiazol-2-yl]ethyl}-2,2-dimethylcyclohexanecarboxylic acid]	≤ 100 nM	
CC1(C)C[C@@H](C(C)(O)c2ncc(-c3cccc(Nc4cc(C(F)(F)F)ccn4)n3)s2)CC[C@@H]1C(=O)O (stereo partly drawn) [Example 14-45, (1S,4S)-4-{1-hydroxy-1-[5-(6-{[4-(trifluoromethyl)pyridin-2-yl]amino}pyridin-2-yl)-1,3-thiazol-2-yl]ethyl}-2,2-dimethylcyclohexanecarboxylic acid]	≤ 100 nM	
Cc1ccnc(Nc2cccc(-c3cnc(C(C)(O)[C@H]4CC[C@H](C(=O)O)C(C)(C)C4)s3)n2)c1 (stereo partly drawn) [Example 14-46, (1S,4S)-4-[1-hydroxy-1-(5-{6-[(4-methylpyridin-2-yl)amino]pyridin-2-yl}-1,3-thiazol-2-yl)ethyl]-2,2-dimethylcyclohexanecarboxylic acid]	≤ 100 nM	
Cc1ccnc(Nc2cccc(-c3cnc(C(C)(O)[C@H]4CC[C@H](C(=O)O)C(C)(C)C4)s3)n2)c1 (stereo partly drawn) [Example 14-47, (1S,4S)-4-[1-hydroxy-1-(5-{6-[(4-methylpyridin-2-yl)amino]pyridin-2-yl}-1,3-thiazol-2-yl)ethyl]-2,2-dimethylcyclohexanecarboxylic acid]	≤ 100 nM	
COc1ccnc(Nc2cccc(-c3cnc(C(C)(O)[C@H]4CC[C@H](C(=O)O)C(C)(C)C4)s3)n2)c1 (stereo partly drawn) [Example 14-48, (1S,4S)-4-[1-hydroxy-1-(5-{6-[(4-methoxypyridin-2-yl)amino]pyridin-2-yl}-1,3-thiazol-2-yl)ethyl]-2,2-dimethylcyclohexanecarboxylic acid]	≤ 100 nM	
COc1ccnc(Nc2cccc(-c3cnc(C(C)(O)[C@H]4CC[C@H](C(=O)O)C(C)(C)C4)s3)n2)c1 (stereo partly drawn) [Example 14-49, (1S,4S)-4-[1-hydroxy-1-(5-{6-[(4-methoxypyridin-2-yl)amino]pyridin-2-yl}-1,3-thiazol-2-yl)ethyl]-2,2-dimethylcyclohexanecarboxylic acid]	≤ 100 nM	
CC1(C)C[C@@H](C(C)(O)c2ncc(-c3cccc(Nc4cc(C(F)F)ccn4)n3)s2)CC[C@@H]1C(=O)O (stereo partly drawn) [Example 14-50, (1S,4S)-4-{1-[5-(6-{[4-(difluoromethyl)pyridin-2-yl]amino}pyridin-2-yl)-1,3-thiazol-2-yl]-1-hydroxyethyl)-2,2-dimethylcyclohexanecarboxylic acid]	≤ 100 nM	IC50 [1, 5]: 6 nM
Cc1cc(Nc2cc(C(F)(F)F)ccn2)nc(-c2cnc([C@@](C)(O)[C@H]3CNC(=O)C3)s2)c1 [Example 14-55, (4R)-4-{(1S)-1-hydroxy-1-[5-(4-methyl-6-{[4-(trifluoromethyl)pyridin-2-yl]amino}pyridin-2-yl)-1,3-thiazol-2-yl]ethyl}pyrrolidin-2-one]	≤ 100 nM	
Cc1cc(Nc2cc(C(F)(F)F)ccn2)nc(-c2cnc([C@](C)(O)[C@H]3CNC(=O)C3)s2)c1 [Example 14-56, (4R)-4-{(1R)-1-hydroxy-1-[5-(4-methyl-6-{[4-(trifluoromethyl)pyridin-2-yl]amino}pyridin-2-yl)-1,3-thiazol-2-yl]ethyl}pyrrolidin-2-one]	≤ 100 nM	
Cc1cc(Nc2cc(C(F)(F)F)ccn2)nc(-c2cnc(C(C)(O)C3CCC(C(=O)O)C(C)C3)s2)c1 (stereo not shown) [Example 15-14, 4-{1-hydroxy-1-[5-(4-methyl-6-{[4-(trifluoromethyl)pyridin-2-yl]amino}pyridin-2-yl)-1,3-thiazol-2-yl]ethyl}-2-methylcyclohexanecarboxylic acid]	≤ 100 nM	
Cc1cc(Nc2cc(C(F)(F)F)ccn2)nc(-c2cnc(C(C)(O)C3CCC(C(=O)O)C(C)C3)s2)c1 (stereo not shown) [Example 15-15, 4-{1-hydroxy-1-[5-(4-methyl-6-{[4-(trifluoromethyl)pyridin-2-yl]amino}pyridin-2-yl)-1,3-thiazol-2-yl]ethyl}-2-methylcyclohexanecarboxylic acid]	≤ 100 nM	
Cc1cc(Nc2cc(C(F)(F)F)ccn2)nc(-c2cnc(C(C)(O)C3CCC(C(=O)O)C(C)C3)s2)c1 (stereo not shown) [Example 15-16, 4-{1-hydroxy-1-[5-(4-methyl-6-{[4-(trifluoromethyl)pyridin-2-yl]amino}pyridin-2-yl)-1,3-thiazol-2-yl]ethyl}-2-methylcyclohexanecarboxylic acid]	≤ 100 nM	
Cc1cc(Nc2cc(C(F)(F)F)ccn2)nc(-c2cnc(C(C)(O)C3CCC(C(=O)O)C(C)C3)s2)c1 (stereo not shown) [Example 15-17, 4-{1-hydroxy-1-[5-(4-methyl-6-{[4-(trifluoromethyl)pyridin-2-yl]amino}pyridin-2-yl)-1,3-thiazol-2-yl]ethyl}-2-methylcyclohexanecarboxylic acid]	≤ 100 nM	
Oc1cccc(Nc2ncc(F)c(Nc3cccc(O)c3)n2)c1 [Example R112]		clinical safety [2]: safe across a range of indicators; decrease in PGD2 [2]: statistically significant decrease; efficacy versus placebo [3]: lack of efficacy versus placebo
butyl trans-4-[1-hydroxy-1-(5-{6-[(4-methoxypyridin-2-yl)amino]-4-methylpyridin-2-yl}-1,3-thiazol-2-yl)ethyl]cyclohexanecarboxylate [Example 14-2]	100 to 1000 nM	IC50 [1, 5]: 219 nM
